Marks after values point to notes of the source that are not given here. Where no end group is shown, it is not given here. Moiety B = not defined here
Key:
[1] = tested on: SD rats; assay: Oral glucose tolerance test (OGTT) in rats; single injection; 1 mg/kg; type: in vivo; set-up: Change in AUC (mg/dL*min): unit not given here; conditions: for % Glucose Reduction (Blood Glucose AUC0-120 min) / Comp/std Liraglutide (ratio of % glucose reduction) / blood glucose lowering effect vs liraglutide / Blood Glucose AUC (mg/dL*min) Mean / Change in AUC (mg/dL*min): OGTT; for % Glucose Reduction (Blood Glucose AUC0-120 min) / Comp/std Liraglutide (ratio of % glucose reduction): 1 mg/Kg dose, after 24 hrs; for blood glucose lowering effect vs liraglutide / Blood Glucose AUC (mg/dL*min) Mean / Change in AUC (mg/dL*min): 1 mg/Kg; for blood glucose lowering effect vs liraglutide: at 24 hrs; for Blood Glucose AUC (mg/dL*min) Mean: Exp. 1; for Change in AUC (mg/dL*min): Exp. 1, vs control group
Procedure: (§1) Animals were divided into three groups—a normal control group, a test group and a third semaglutide group, with 4 animals in each group. The animals were fasted for 12 hours before initiation of OGTT. To the test group animals, the Compound 1 was injected subcutaneously at 1 mg/kg dose. To the semaglutide group, a dose of 1 mg/kg was injected subcutaneously. After 22 hrs, 166 hrs and 334 hrs of subcutaneous injection of test drug or semaglutide, blood glucose was measured with blood glucose meter (time 0 measurements). All the animals were then given 2 g/kg of glucose solution orally. Blood glucose was measured at 20, 40, 60, 90 and 120 minutes following glucose challenge. Body weight and food intake was recorded. Blood glucose data was analyzed using Two way ANOVA followed by Bonferroni posttests using PRISM (Graph Pad version 5.03). Data of Blood glucose AUC0-120 min, was analyzed using t test.
as §1, with “animals,” for “animals, the”, “1, Compound 13 and Compound 16 were” for “1 was”, “compound” for “drug”

[2] = Food intake and body weight recorded in the rat OGTT study; type: in vivo, rats; conditions: 1 mg/Kg; for Body Weight Change (%) Mean / Food Consumption (g) Mean: Exp. 1
Procedure: as §1
as §1, with “animals,” for “animals, the”, “1, Compound 13 and Compound 16 were” for “1 was”, “compound” for “drug”

[3] = tested on: db/db mice (diabetic mouse model); assay: Separate db/db diabetic mouse study, q2d*15 up to day 28, recovery period day 29 to day 45; type: in vivo; conditions: for Blood Glucose AUC (Day 30-37) % Change vs Control / Blood Glucose AUC (Day 30-37) (mg/dL*days) Mean / Blood Glucose AUC (Day 38-45) % Change vs Control / Blood Glucose AUC (Day 38-45) (mg/dL*days) Mean: recovery period
Procedure: The study was performed in similar manner as above on diabetic mouse model. The animals were divided into three treatment groups—a diabetic control group, a test group and a semaglutide treatment group. The representative compounds of the present disclosure, Compound 1, Compound 13 and Compound 16, were injected subcutaneously at 3.04 or 6.078 nM dose (every alternate day up to day 28 (q2d*15). The same dosage regimen was administered in semaglutide treatment group. Measurements of blood glucose levels and body weight were done daily. % HbA1c, Insulin was measured on Day 0, day 14 and day 29. Cumulative food intake and body weight change was calculated on day 14 and 29. % HbA1c, Insulin data was analyzed by two way ANOVA followed by Bonferroni's posttests using PRISM (Graph Pad version 5.03). Whereas Blood Glucose AUC, Body weight change and Cumulative food intake data was analyzed by one way ANOVA followed by Bonferroni's posttests using PRISM (Graph Pad version 5.03). From day 29 to day 45, animals were kept on recovery period during which no drug treatment was given. Blood Glucose and Body weight was measured during this period. On day 45, Body weight Changes, % HbA1c, Insulin was measured.

[4] = earlier dose 3.04 nM (3.4 nM given for Compound 16)
[5] = recovery study, day 45, earlier dose 3.04 nM
[6] = recovery study, day 45, earlier dose 6.078 nM (6.0788 nM given for Compound 13)

Compound 6: SEQ ID NO: 10, Moiety B; differs from liraglutide in having an additional Leu at 32nd position (HAEGTFTSDVSSYLEGQAAK(Moiety B)EFIAWLVRGRGL-OH; reading uncertain)
% Glucose Reduction (Blood Glucose AUC0-120 min) [1]: 75.8%
Comp/std Liraglutide (ratio of % glucose reduction) [1]: 1.83
blood glucose lowering effect vs liraglutide [1]: significantly higher than liraglutide

Compound 7: SEQ ID NO: 05, Moiety B; liraglutide with 2nd amino acid Ala replaced with Aib and additional 32nd amino acid Leu (HXXXGTFTSDVSSYLXGQAAXEFXAWLVRGRGXX; (2)..(2) Xaa = Aib; (3)..(3) Xaa = absent.; (4)..(4) Xaa = Glu.; (16)..(16) Xaa = Glu.; (21)..(21) Lys is substituted; (24)..(24) Xaa is Ile.; (33)..(33) Xaa is Leu.; (34)..(34) Xaa is absent.)
% Glucose Reduction (Blood Glucose AUC0-120 min) [1]: 71.9%
Comp/std Liraglutide (ratio of % glucose reduction) [1]: 1.73
blood glucose lowering effect vs liraglutide [1]: significantly higher than liraglutide

Compound 13: SEQ ID NO: 05, acylated with Moiety C (HXXXGTFTSDVSSYLXGQAAXEFXAWLVRGRGXX; lipidated side chain; (2)..(2) Xaa = Aib; (3)..(3) Xaa = absent.; (4)..(4) Xaa = Glu.; (16)..(16) Xaa = Glu.; (21)..(21) Lys is substituted; (24)..(24) Xaa is Ile.; (33)..(33) Xaa is Leu.; (34)..(34) Xaa is absent.)
Body Weight Change (%) Mean ([2]; 48 h): −10.2%
Food Consumption (g) Mean ([2]; 48 h): 8.4 g
Body Weight Change (%) Mean ([2]; 154 h): 4.5%
Food Consumption (g) Mean ([2]; 154 h): 62.3 g
Body Weight Change (%) Mean ([2]; 324 h): 8.2%
Food Consumption (g) Mean ([2]; 324 h): 82.44 g
food consumed vs animals administered with semaglutide ([2]; text on Table 8): consumed significantly less food
Blood Glucose AUC (mg/dL*min) Mean ([1]; 22 hr): 2795.0 mg·min/dL
Change in AUC (mg/dL*min) ([1]; 22 hr): −81.2
Blood Glucose AUC (mg/dL*min) Mean ([1]; 168 hr): 6950.0 mg·min/dL
Change in AUC (mg/dL*min) ([1]; 168 hr): −59.5
Blood Glucose AUC (mg/dL*min) Mean ([1]; 336 hr): 11368.0 mg·min/dL
Change in AUC (mg/dL*min) ([1]; 336 hr): −31.6
reduction in blood glucose AUC ([1]; after 168 hrs of injection, 1 mg/kg): about 60%
Blood Glucose AUC (Day 0-29) % Change Vs Control ([3]; 3.04 nM, q2d*15): −43.86%
Blood Glucose AUC (Day 0-29) (mg/dL*days) Mean ([3]; 3.04 nM, q2d*15): 9515.4*** mg/dL*days
Body Weight Change Day 29, % Change vs Day 0 Mean ([3]; 3.04 nM, q2d*15): 1.2%
Cumulative Food Intake (g) Day 0-29 Mean ([3]; 3.04 nM, q2d*15): 75.2 g
Blood Glucose AUC (Day 0-29) % Change Vs Control ([3]; 6.078 nM, q2d*15): −50.13%
Blood Glucose AUC (Day 0-29) (mg/dL*days) Mean ([3]; 6.078 nM, q2d*15): 8451.7***## mg/dL*days
Body Weight Change Day 29, % Change vs Day 0 Mean ([3]; 6.078 nM, q2d*15): −1.1%
Cumulative Food Intake (g) Day 0-29 Mean ([3]; 6.078 nM, q2d*15): 70.4 g
% HbA1C Mean ([3]; Day 0, 3.04 nM, q2d*15): 7.7%
Insulin (ng/mL) Mean ([3]; Day 0, 3.04 nM, q2d*15): 21.7 ng/mL
% HbA1C Mean ([3]; Day 0, 6.078 nM, q2d*15): 7.83%
Insulin (ng/mL) Mean ([3]; Day 0, 6.078 nM, q2d*15): 26.2 ng/mL
% HbA1C Mean ([3]; Day 14, 3.04 nM, q2d*15): 6.6* %
Insulin (ng/mL) Mean ([3]; Day 14, 3.04 nM, q2d*15): 41.8 ng/mL
% HbA1C Mean ([3]; Day 14, 6.078 nM, q2d*15): 6.00 *** %
Insulin (ng/mL) Mean ([3]; Day 14, 6.078 nM, q2d*15): 61.2*** ng/mL
% HbA1C Mean ([3]; Day 29, 3.04 nM, q2d*15): 6.4 *** %
Insulin (ng/mL) Mean ([3]; Day 29, 3.04 nM, q2d*15): 54.4** ng/mL
% HbA1C Mean ([3]; Day 29, 6.078 nM, q2d*15): 5.64 *** %
Insulin (ng/mL) Mean ([3]; Day 29, 6.078 nM, q2d*15): 59.4*** ng/mL
HbA1c, blood glucose, food consumption and body weight vs control ([3]; about 3 nM and 6 nM dose): significant reduction
Blood Glucose AUC (Day 30-37) % Change vs Control [3, 4]: −27.93%
Blood Glucose AUC (Day 30-37) (mg/dL*days) Mean [3, 4]: 2588.7** mg/dL*days
Blood Glucose AUC (Day 38-45) % Change vs Control [3, 4]: −5.57%
Blood Glucose AUC (Day 38-45) (mg/dL*days) Mean [3, 4]: 3401.0 mg·days/dL
Blood Glucose AUC (Day 30-37) % Change vs Control ([3]; earlier dose 6.078 nM): −19.94%
Blood Glucose AUC (Day 30-37) (mg/dL*days) Mean ([3]; earlier dose 6.078 nM): 2875.7 mg·days/dL
Blood Glucose AUC (Day 38-45) % Change vs Control ([3]; earlier dose 6.078 nM): −6.68%
Blood Glucose AUC (Day 38-45) (mg/dL*days) Mean ([3]; earlier dose 6.078 nM): 3361.0 mg·days/dL
% HbA1C Mean [3, 5]: 7.5%
Delta HbA1C vs. DC [3, 5]: −1.0
Insulin (ng/mL) Mean [3, 5]: 31.2 ng/mL
% HbA1C Mean [3, 6]: 7.3%
Delta HbA1C vs. DC [3, 6]: −1.2
Insulin (ng/mL) Mean [3, 6]: 34.3 ng/mL
Body Weight % Change vs Day 45 Mean ([3]; recovery study, earlier dose 3.04 nM): 6.6%
Body Weight % Change vs Day 45 Mean ([3]; recovery study, earlier dose 6.078 nM (6.0788 nM given for Compound 13)): 5.5%
